Experimental data taken from US20230277483A1, “COMPOSITIONS AND METHODS TO TREAT INFLAMMATION” (University of Iowa Research Foundation, priority 2022, published 2023).

Assays:
Human MDM = experiment: Anti-inflammatory miR expression after Pg-LPS challenge; type: cell-based
Description: FIGS. 11A-11B. Sg metabolites upregulate anti-inflammatory miRs in human macrophages and HGF. A-B: Relative transcript changes of miR-200c, 146a, and 21 in HGF (A) and human MDM (B) treated with AICAR, MA, HCA, and HPLA 24 hours after Pg-LPS challenge; performed in duplicate.
Human MDM was cultured in a 24-well plate and treated with HCA at different concentrations and Pg-LPS at 100 ng/mi for 24 hrs. […] (All data are presented as means±SEM. *: p<0.05 vs untreated, ANOVA).

[1] = test system: human monocyte-derived macrophages (MDM); experiment: MTT toxicity assay; type: cell-based; details: HCA from 0.1 to 50 μM; 24 and 48 hours
Description: (§1) HCA promotes proliferation of health related bacteria and inhibits proliferation and attachment of periodontopathogenic bacteria. Promoting the growth of health-related commensal bacteria while inhibiting proliferation and attachment of pathogenic bacteria may be effective at preventing or treating periodontal inflammation. To determine if HCA has an effect on the growth properties of commensal bacteria and periodontopathogens, HCA at different concentrations was added to aerobic culture of S. mitis and S. oralis and anaerobic culture of T. denticola as described in our published manuscript (see detail in Shu et al, Journal of Periodontology, 2022). FIGS. 18A-C summarize the functions of HCA on the proliferation of specific commensal and pathogenic bacteria. […] Furthermore, the function of HCA on P. gingivalis attachment, a key parameter of adhesion and biofilm formation by periodontopathogenic bacteria, was investigated. […] The composition of the microbiomes was determined by amplifying the V3 and V4 regions of the 16S rRNA genes. Raw data in FASTQ format were filtered and denoised using DADA2 (Divisive Amplicon Denoising Algorithm) to generate amplicon sequence variants (ASV) or operational taxonomical units (OTUs) that were then analyzed by QIIME2.

Td (ATCC 35405) = experiment: Bacterial proliferation measured by OD600; type: cell-based, Treponema denticola; details: HCA at 0.1 μM; anaerobic culture
Description: (§2) Sg metabolites promote commensal bacterial proliferation and inhibit periodontopathogenic bacterial proliferation and colonization. Commensal bacteria, Sg, S. sanguinis (Ss, ATCC10556), S. mitis (Sm, ATCC49456) and S. oralis (So, ATCC 35037) were cultured in BHI medium. In addition, pathogenic bacteria, Pg was cultured using BHI and Tf (ATCC43037), and Td (ATCC 35405) were grown in Thioglycollate medium with vitamin K and Hemin in 90% N2, 5% H2, 5% CO2. The Sg metabolites were diluted using DMEM and added to the bacteria with the similar OD600 value. The same amount of DMEM was used as a control. During the exponential growth of bacteria, the OD600 value was measured to determine the proliferation. […] In addition, to determine the function of Sg metabolites on Pg colonization, Pg were inoculated in 24-well plates containing BHI or BHI supplemented with DMEM or Sg metabolites. […]
(§3) HCA promotes proliferation of health related bacteria and inhibits proliferation and attachment of periodontopathogenic bacteria. […] The composition of the microbiomes was determined by amplifying the V3 and V4 regions of the 16S rRNA genes. Raw data in FASTQ format were filtered and denoised using DADA2 (Divisive Amplicon Denoising Algorithm) to generate amplicon sequence variants (ASV) or operational taxonomical units (OTUs) that were then analyzed by QIIME2.

[2] = test system: S. oralis (So, ATCC 35037); experiment: Bacterial proliferation measured by OD600; type: cell-based, Streptococcus oralis; details: HCA at 0.1 μM; aerobic culture
Description: as §2, §3

[3] = test system: oral and fecal microbiomes of obese mice; experiment: Oral and fecal microbiome composition (16S rRNA) in DIO mice; type: in vivo, mouse; details: 100 μl of HCA at 0.2 and 0.5 μM I.P. three times a week for 3 weeks
Description: as §1

S. mitis (Sm, ATCC49456) = experiment: Bacterial proliferation (growth profile); type: cell-based, Streptococcus mitis; details: HCA at 0.1 μM; aerobic culture
Description: as §2, §3

SMILES: O=C(O)CCCCCO [HCA, 6-hydroxycaproic acid]
- anti-inflammatory miRs (miR-200c, 146a, and 21) (Human MDM; 24 hours after Pg-LPS challenge): upregulate
- miR-200c expression (Human MDM; HCA at 10 μM, Pg-LPS at 100 ng/ml for 24 hrs): significantly upregulated
- toxicity (MTT assay) [1]: No toxicity
- proliferation of T. denticola (Td (ATCC 35405)): significantly inhibits
- proliferation of S. oralis [2]: improve proliferation
- effect on composition of the microbiomes [3]: dose dependent
- representation of Streptococcus danieliae and other unclassified streptococci in the oral microbiome [3]: large increases
- proliferation of S. mitis (S. mitis (Sm, ATCC49456)): improve proliferation
